“And” between values parts separate entries of the source, which are not always exact repeats. Equal values may be shown once. Read-outs that look alike come from different tables or passages of the source.
Tests used:
[1] = system: superoxide dismutase (SOD) activity in RKO cells; test: SOD activity in RKO cells; type: cell-based; conditions: 10 µg/mL, 24 h
Procedure: (§1) In addition, two colorectal cancer cell lines, RKO and SW1116, were distinguished based on a different response to the EB5 derivative. To perform subsequent analyses, the selected CRC lines were treated with EB5 derivative at a concentration of 10 µg/mL for 24 h. Untreated cells were used as a negative control. Three biological replicates were performed.
(§2) To examine the antioxidant capacity of the cells as well as lipid peroxidation and to evaluate the activity of antioxidant enzymes, the cells were suspended in lysis buffer (containing 4 mg of […]™ Protease Inhibitor Cocktail and 10 µL of Phosphatase Inhibitor Cocktail 3 in 1 mL of PBS; Sigma-Aldrich, St Louis, MO, USA). Subsequently, the cells were placed in liquid nitrogen for 30 min, followed by storage at −80 °C until further analysis.
(§3) Superoxide dismutase (SOD), glutathione peroxidase (GPx) and catalase (CAT) activities were assessed using a commercially purchased Cayman Chemicals Superoxide Dismutase Assay Kit, a Cayman Chemicals Glutathione Peroxidase Assay Kit and a Catalase Assay Kit (Cayman Chemicals, Ann Arbor, MI, USA), respectively, according to the manufacturer’s recommendations and based on a previous study. […] The level of change in absorbance was measured spectrophotometrically at the appropriate wavelength for the assay, i.e., for SOD in the range 440–460 nm, for GPx at 340 nm and for CAT at 540 nm.

CCD-841CoN cells = test: cells; type: cell-based; conditions: CCD-841CoN normal cells, MTT, 24 h; for IC50: read-out: IC50 value
From the text: (§4) Control cells were not treated with the compounds.

in vitro = type: cell-based; conditions: human
From the text: as §4

HCT116 cells = test: MTT cytotoxicity assay, HCT116; type: cell-based; conditions: HCT 116, MTT, 24 h; for IC50: read-out: IC50 value
From the text: as §4

RKO cells [2] = test: MTT cytotoxicity assay, RKO
Procedure: (§5) Six colorectal cancer cell lines, RKO, HT29, DLD-1, HCT116, Caco2 and SW1116 (CRL-2577, HTB-38, CCL-221, CCL-247, HTB-37, CCL-233; ATCC, Manassas, VA, USA, respectively, for CRC lines), and one normal cell line, CCD-841CoN (CRL-1790, ATCC, USA), were routinely cultured at 37 °C in a 5% CO2 incubator (Direct Heat CO2; Thermo Scientific, Waltham, MA, USA) in cell line-appropriate culture medium according to the manufacturer’s recommendations. Eagle’s minimum essential medium (EMEM) was used to culture RKO, Caco2 and CCD-841CoN lines, while McCoy’s 5A medium was used for HT29 and HCT116 lines. DLD-1 cells were grown in RPMI-1640 medium, whereas SW1116 cells were maintained in Leibovitz’s L-15 medium. All culture media were supplemented with 10% fetal bovine serum (EuroClone, Milan, Italy), and gentamycin at the concentration […] (BioWhittaker, Lonza, Basel, Switzerland) was also applied to prevent culture contamination.
(§6) For this purpose, cells were exposed to the test compound for 24 h at concentrations of 0.1, 1, 10, 20, 50 and 100 μg/mL. Control cells were not treated with the compounds. MTT (0.25 mg/mL) was then added to the cultures and incubated for 3 h at 37 °C. After a time, the cells were washed with phosphate buffered saline (PBS), and next, formazan dye was dissolved in 100 μL of dimethyl sulfoxide (Sigma-Aldrich, St Louis, MO, USA). Absorbance was measured at 540 nm using a Wallac 1420 VICTOR microplate reader (PerkinElmer, Waltham, MA, USA).

[3] = system: SOD2 gene expression in SW1116 cells; test: SOD2 mRNA, real-time RT-qPCR, SW1116; type: cell-based; conditions: SW1116, 10 µg/mL, 24 h
Procedure: as §1
(§7) Total RNA from treated cells was extracted using TRIzol reagent (Sigma-Aldrich, St Louis, MO, USA) according to the manufacturer’s instructions. The obtained RNA was assessed qualitatively and quantitatively by agarose gel electrophoresis and by spectrophotometric measurement using MaestroNano MN-913 (MaestroGen Inc., Las Vegas, NV, USA), respectively. The obtained extracts provided the starting material for the assessment of genes changes at the mRNA level.
(§8) Changes in the expression of SOD1, SOD2, CAT and GPX3 genes involved in antioxidant systems were assessed by real-time RT-qPCR using a LightCycler® 480 System apparatus (Roche, Basel, Switzerland). A commercially purchased GoTaq® 1-Step RT-qPCR System (Promega, Madison, WI, USA) was used, while the primers and reaction conditions were the same as in the previous study performed by Kruszniewska-Rajs et al.. GAPDH was used as the reference gene. The mRNA expression level studied genes were then determined by the 2^−ΔCt relative quantification method. All samples were tested in triplicate. The specificity of the reaction was evaluated based on the melting temperature curve, as well as using electrophoresis of the amplification products in a 2% agarose gel.

HT29 cells = test: MTT cytotoxicity assay, HT29; type: cell-based; conditions: HT29, MTT, 24 h; for IC50: read-out: IC50 value
From the text: as §4

Caco2 cells = test: MTT cytotoxicity assay, Caco2; type: cell-based; conditions: Homo sapiens, Caco-2; Caco2, MTT, 24 h; read-out: IC50 value
RKO cells [4] = test: Lipid peroxidation, MDA assay, RKO; type: cell-based; conditions: 10 µg/mL, 24 h
Procedure: (§9) In addition, two colorectal cancer cell lines, RKO and SW1116, were distinguished based on a different response to the EB5 derivative. […] Untreated cells were used as a negative control. Three biological replicates were performed. To examine the antioxidant capacity of the cells as well as lipid peroxidation and to evaluate the activity of antioxidant enzymes, the cells were suspended in lysis buffer (containing 4 mg of […]™ Protease Inhibitor Cocktail and 10 µL of Phosphatase Inhibitor Cocktail 3 in 1 mL of PBS; Sigma-Aldrich, St Louis, MO, USA). Subsequently, the cells were placed in liquid nitrogen for 30 min, followed by storage at −80 °C until further analysis. To assess the level of lipid peroxidation, the Malondialdehyde Assay Kit (Aoxre BioSciences, Burlingame, CA, USA) was used, according to the manufacturer’s recommendations.

[5] = system: CAT gene expression in RKO cells; test: CAT mRNA, real-time RT-qPCR, RKO; type: cell-based; conditions: 10 µg/mL, 24 h
Procedure: as §1, §7, §8

DLD-1 cells = test: MTT cytotoxicity assay, DLD-1; type: cell-based; conditions: DLD-1, MTT, 24 h; for IC50: read-out: IC50 value
From the text: as §4

[6] = system: catalase (CAT) activity in RKO cells; test: CAT activity in RKO cells; type: cell-based; conditions: 10 µg/mL, 24 h
Procedure: as §1, §2, §3

SW1116 cells [7] = test: Lipid peroxidation, MDA assay, SW1116; type: cell-based; conditions: SW1116, 10 µg/mL, 24 h
Procedure: as §9

SW1116 cells [8] = test: MTT cytotoxicity assay, SW1116; conditions: for IC50: read-out: IC50 value
Procedure: as §5, §6

[9] = system: SOD2 gene expression in RKO cells; test: SOD2 mRNA, real-time RT-qPCR, RKO; type: cell-based; conditions: 10 µg/mL, 24 h
Procedure: as §1, §7, §8

[10] = system: catalase (CAT) activity in SW1116 cells; test: CAT activity in SW1116 cells; type: cell-based; conditions: SW1116, 10 µg/mL, 24 h
Procedure: as §1, §2
Superoxide dismutase (SOD), glutathione peroxidase (GPx) and catalase (CAT) activities were assessed using a commercially purchased Cayman Chemicals Superoxide Dismutase Assay Kit, a Cayman Chemicals Glutathione Peroxidase Assay Kit and a Catalase Assay Kit (Cayman Chemicals, Ann Arbor, MI, USA), respectively, according to the manufacturer’s recommendations and based on a previous study. The cell supernatant from previously prepared cell lysates of the tested lines provided material for further analyses. The level of change in absorbance was measured spectrophotometrically at the appropriate wavelength for the assay, i.e., for SOD in the range 440–460 nm, for GPx at 340 nm and for CAT at 540 nm.

[11] = system: SOD1 gene expression in RKO cells; test: SOD1 mRNA, real-time RT-qPCR, RKO; type: cell-based; conditions: 10 µg/mL, 24 h
Procedure: as §1, §7, §8

[12] = system: CAT gene expression in SW1116 cells; test: CAT mRNA, real-time RT-qPCR, SW1116; type: cell-based; conditions: SW1116, 10 µg/mL, 24 h
Procedure: as §1, §7, §8

RKO cells [13] = test: Total antioxidant capacity (ABTS+), RKO; type: cell-based; conditions: 10 µg/mL, 24 h
Procedure: as §1, §2
The ABTS+ radical cation was used to assess the total antioxidant capacity (TAC) of the tested cells. The principle of the method is based on the reduction of the formed blue-green chromophore ABTS+ as a result of the reaction of ABTS (Sigma-Aldrich, St Louis, MO, USA) with potassium persulphate (Sigma-Aldrich, St Louis, MO, USA). The degree of decolorization of the ABTS+ radical cation depends on the antioxidant activity of the cells and is determined as a function of concentration and time in relation to Trolox reactivity (TEAC-Trolox equivalent antioxidant capacity).

With `C#CC(=O)OC[C@]12CC[C@@H](C(=C)C)[C@@H]1[C@H]1CC[C@@H]3[C@@]4(C)CC[C@H](O)C(C)(C)[C@@H]4CC[C@@]3(C)[C@]1(C)CC2` [EB5, 28-propynylobetulin] the “SOD activity compared to cells treated with betulin” value [1] was “modest increase”, the IC50 (CCD-841CoN cells; Homo sapiens) was > 100 µg/mL and > 202 µM and the viability at 24 h, 100 μg/mL (in vitro) was no less than 50%. The IC50 (HCT116 cells; Homo sapiens) was 16.7 µg/mL and 33.7 µM, the viability at 10 µg/mL (RKO cells [2]; Homo sapiens, 24 h) was no less than 50% and the IC50 (RKO cells [2]; Homo sapiens, 24 h, read-out: IC50 value) was 12.2 µg/mL and 24.6 µM. For the same molecule, the “SOD2 gene expression vs. 5FU” value [3] was “Decreased SOD2 gene expression”, the “SOD2 gene expression vs. cisplatin” value [3] was “Decreased SOD2 gene expression” and the IC50 (HT29 cells; Homo sapiens, HT-29) was 8.25 µg/mL and 16.7 µM. The IC50 (Caco2 cells) was 16.9 µg/mL and 34.2 µM, the “increase in MDA levels compared to the control cells” value (RKO cells [4]) was “about 98.0%” and the “CAT gene expression vs. 5FU” value [5] was “significant increase in expression”. The “CAT gene expression vs. cisplatin” value [5] was “significant decrease in expression”, the IC50 (DLD-1 cells; Homo sapiens) was 11.1 µg/mL and 22.4 µM and the “CAT activity compared to the betulin-treated cells” value [6] was “slight decrease”. The “MDA level compared to the control” value (SW1116 cells [7]) was “did not cause changes”, the viability at 10 µg/mL (SW1116 cells [8]; Homo sapiens, SW 1116, 24 h) was no less than 50% and the IC50 (SW1116 cells [8]; Homo sapiens, SW 1116, 24 h) was 34.4 µg/mL and 69.5 µM. For the same molecule, the “SOD2 gene expression vs. cisplatin” value [9] was “significant decrease in SOD2 gene expression” and the “catalase activity compared to the control” value [10] was “did not cause changes”.
For `N.N.[Cl][Pt][Cl]` [Cisplatin, cisplatin], the IC50 value (CCD-841CoN cells) was 27.59 µg/mL, the IC50 (CCD-841CoN cells) was 91.9 µM and the IC50 value (HCT116 cells) was 3.02 µg/mL. The IC50 (HCT116 cells) was 10.1 µM, the IC50 value (RKO cells [2]; MTT, 24 h) was 6.35 µg/mL and the IC50 (RKO cells [2]; read-out: IC50 value, MTT, 24 h) was 21.2 µM. For the same molecule, the IC50 value (HT29 cells) was greater than 100 µg/mL, the IC50 (HT29 cells) was greater than 333 µM and the “MDA level compared to the control group” value (RKO cells [4]) was “did not cause changes”. The “CAT gene expression vs. 5FU” value [5] was “significant increase in expression”, the IC50 value (DLD-1 cells) was 27.72 µg/mL and the IC50 (DLD-1 cells) was 92.4 µM. The “SOD1 gene expression vs. 5FU-treated cells” value [11] was “statistically significant increase in expression”, the “SOD1 gene expression vs. non-treated cells” value [11] was “statistically significant increase in expression” and the “CAT activity compared to the betulin-treated cells” value [6] was “slight decrease”. For the same molecule, the “MDA level compared to 5FU-treated cells” value (SW1116 cells [7]) was “higher level of MDA”, the “MDA level compared to betulin-treated cells” value (SW1116 cells [7]) was “higher level of MDA” and the “MDA level compared to the control” value (SW1116 cells [7]) was “higher level of MDA”. For the same molecule, the IC50 value (SW1116 cells [8]; SW1116, MTT, 24 h) was greater than 100 µg/mL, the IC50 (SW1116 cells [8]; SW1116, MTT, 24 h) was greater than 333 µM and the “CAT gene expression vs. 5FU” value [12] was “difference in the expression”. The “reduction in TAC compared to the control cells” value (RKO cells [13]) was “about 23.6%”, the “SOD2 gene expression vs. 5FU-treated cells” value [9] was “higher expression” and the “SOD2 gene expression vs. untreated cells” value [9] was “statistically significant increase in SOD2 gene expression”. The “catalase activity compared to cells treated with EB5” value [10] was “higher catalase activity”, the “catalase activity compared to cells treated with betulin” value [10] was “higher catalase activity” and the “catalase activity compared to the control” value [10] was “higher catalase activity”.
